Data published in patent US20250019385A1, “SPIROCYCLIC ANNULATED 2-AMINO-3-CYANO THIOPHENES AND DERIVATIVES FOR THE TREATMENT OF CANCER” (Boehringer Ingelheim International GmbH, priority 2023, published 2025).
pIC50: −log10 of the molar value.

Key:
NCI-H358 cells = experiment: NCI-H358 CTG proliferation assay (120 h) (NSCLC, G12C); format: cell-based; settings: Homo sapiens
Protocol: (§1) NCI-H358 cells (ATCC No. CRL-5807) are dispensed into black 384-well plates, flat and clear bottom (Greiner, PNr. 781091) at a density of 200 cells per well in 60 μl RPMI-1640 ATCC-Formulation (Gibco #A10491)+10% FCS (fetal calf serum). Cells are incubated overnight at 37° C. in a humidified tissue culture incubator at 5% CO2. Compounds (10 mM stock in DMSO) are added at logarithmic dose series using the ECHO acoustic liquid handler system (Beckman Coulter), normalizing for added DMSO and including DMSO controls. All compound treatments are performed in technical duplicates. For the TO time point measurement, untreated cells are analyzed at the time of compound addition. Plates are incubated for 120 h, and cell viability is measured using CellTiter-Glo luminescent cell viability reagent (Promega product code G7570). Viability (stated as percent of control) is defined as relative luminescence units RLU of each well divided by the RLU of cells in DMSO controls. IC50 values are determined from viability measurements by non-linear regression using a four-parameter model.
(§2) IC50 values of representative compounds according to the invention measured with these assays in the indicated cell lines are presented in Table 46.

LOVO cells = experiment: LOVO CTG proliferation assay (120 h) (CRC, G13D); format: cell-based; settings: Homo sapiens
Protocol: as §1, with “LOVO” for “NCI-H358”, “CCL-229)” for “CRL-5807)”, “1000” for “200”, “DMEM (Sigma D6429)+10%” for “RPMI-1640 ATCC-Formulation (Gibco #A10491)+10%”, “serum, HyClone, SH30084.03).” for “serum).”
as §2

SK-CO-1 cells = experiment: SK-CO-1 CTG proliferation assay (120 h) (CRC, G12V); format: cell-based; settings: Homo sapiens
Protocol: as §1, with “SK—CO-1” for “NCI-H358”, “HTB-39)” for “No. CRL-5807)”, “500” for “200”, “EMEM (Sigma M5650)+10%” for “RPMI-1640 ATCC-Formulation (Gibco #A10491)+10%”, “serum, HyClone, SH30084.03).” for “serum).”
as §2

[1] = molecular target: KRAS (G12D)::SOS1 protein-protein interaction (Homo sapiens (Human), UniProt P01116, G12D); experiment: KRAS::SOS1 AlphaScreen binding assay (KRAS G12D); settings: GDP
From the text: This assay can be used to examine the potency with which compounds according to the invention binding to (mutated) KRAS inhibit the protein-protein interaction between SOS1 and (mutated) KRAS e.g. KRAS G12C, KRAS G12D. […] Low IC50 values in this assay setting are indicative of strong inhibition of protein-protein interaction between SOS1 and KRAS:
These assays measure the inhibitory effect of compounds on KRAS mutant protein-protein interactions using the Alpha Screen technology by Perkin Elmer.
The following (mutant) enzyme forms of KRAS and interacting proteins are used in these assays at the given concentrations:
KRAS (G12D) 1-169, N-terminal 6His-tag, C-terminal avi-tag (Xtal BioStructures, Inc.); final assay concentration 10 nM and SOS1 564-1049, N-terminal 229 GST-tag, TEV cleavage site (Viva Biotech Ltd); final assay concentration 5 nM;
Test compounds dissolved in DMSO are dispensed onto assay plates (Proxiplate 384 PLUS, white, PerkinElmer; 6008289) using an Access Labcyte Workstation with the Labcyte Echo 55x. For the chosen highest assay concentration of 100 μM, 150 nL of compound solution are transferred from a 10 mM DMSO compound stock solution. A series of eleven fivefold dilutions per compound are transferred to the assay plate, compound dilutions are tested in duplicates. DMSO are added as backfill to a total volume of 150 nL.
The assays run on a fully automated robotic system in a darkened room below 100 Lux. To 150 nl of compound dilution 10 μl of a mix including KRAS mutant protein, SOS1 (final assay concentrations see above) and GDP nucleotide (Sigma G7127; final assay concentration 10 μM) in assay buffer (1×PBS, 0.1% BSA, 0.05% Tween 20) are added into columns 1-24.
After 30 minutes incubation time 5 μl of Alpha Screen bead mix in assay buffer are added into columns 1-23. Bead mix consists of AlphaLISA Glutathione Acceptor Beads (PerkinElmer, Cat No AL109) and AlphaScreen Streptavidin Donor Beads (PerkinElmer Cat No 6760002) in assay buffer at a final assay concentration of 10 μg/mL each.
Plates are kept at room temperature in a darkened incubator. After an additional 60 minutes incubation time the signal is measured in a PerkinElmer Envision HTS Multilabel Reader using the AlphaScreen specs from PerkinElmer.
Each plate contains up to 16 wells of a negative control depending on the dilution procedure (platewise or serial) (DMSO instead of test compound; with KRAS mutant::SOS1 GOP mix and bead mix; column 23) and 16 wells of a positive control (DMSO instead of test compound; with KRAS mutant::SOS1 GOP mix w/o bead mix; column 24).
As internal control known inhibitors of KRAS mutant::SOS1 interaction can be measured on each compound plate.
IC50 values are calculated and analyzed with Boehringer Ingelheim's MEGALAB C50 application using a 4 parametric logistic model.
Tables of example compounds disclosed herein contain IC50 values determined using the above assays (see Table 43).

KRAS (G12D)::SOS1 protein-protein interaction, sequence (P01116 other isoform, or with tags, fused parts or gaps G12D): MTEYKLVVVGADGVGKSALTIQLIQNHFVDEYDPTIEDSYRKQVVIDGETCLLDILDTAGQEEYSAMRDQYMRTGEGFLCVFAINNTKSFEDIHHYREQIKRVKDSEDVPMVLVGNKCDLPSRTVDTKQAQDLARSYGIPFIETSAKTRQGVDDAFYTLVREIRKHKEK

Compound | pIC50 (NCI-H358 cells) | pIC50 (LOVO cells) | pIC50 (SK-CO-1 cells) | pIC50 [1]
COCCn1c(=O)n([C@@H]2CCOC2)c2nc(-c3onc4c3CCC[C@@]43CCCc4sc(N)c(C#N)c43)nc(O[C@@H](C)[C@@H]3CCCN3C)c21 [I-1] | 8.05 | 8.30 | 8.10 | 9.00
CO[C@H]1C[C@@H]([C@H](C)Oc2nc(-c3onc4c3CCC[C@@]43CCCc4sc(N)c(C#N)c43)nc3c2n(C)c(=O)n3[C@@H]2CCOC2)N(C)C1 [I-2] | 7.37 | 8.52 | 7.37 | 8.70
CO[C@@H]1C[C@@H]([C@H](C)Oc2nc(-c3onc4c3CCC[C@@]43CCCc4sc(N)c(C#N)c43)nc3c2n(C)c(=O)n3[C@@H]2CCOC2)N(C)C1 [I-3] | 8.40 | 7.82 | 8.40 | 9.00
C[C@H](Oc1nc(-c2onc3c2CCC[C@@]32CCCc3sc(N)c(C#N)c32)nc2c1n(C)c(=O)n2[C@@H]1CCOC1)[C@@H]1[C@H](F)CCN1C [I-4] | 6.97 | 6.74 | 7.11 | 8.40
C[C@H](Oc1nc(-c2onc3c2CCC[C@@]32CCCc3sc(N)c(C#N)c32)nc2c1n(C)c(=O)n2[C@@H]1CCOC1)[C@@H]1[C@@H](F)CCN1C [I-5] | 7.27 | 7.54 | 7.33 | 8.70
CO[C@H]1CCN(C)[C@@H]1[C@H](C)Oc1nc(-c2onc3c2CCC[C@@]32CCCc3sc(N)c(C#N)c32)nc2c1n(C)c(=O)n2[C@@H]1CCCOC1 [I-6] | 8.40 | 8.52 | 8.15 | 8.70
COCCn1c(=O)n(C)c2c(O[C@@H](C)[C@@H]3CCCN3C)nc(-c3onc4c3CCC[C@@]43CCCc4sc(N)c(C#N)c43)nc21 [I-7] | 6.91 | 6.25 | 6.72 | 8.30
C[C@H](Oc1nc(-c2onc3c2CCC[C@@]32CCCc3sc(N)c(C#N)c32)nc2c1[nH]c(=O)n2[C@@H]1CCOC1)[C@@H]1CCCN1C [I-8] | 8.05 | 6.59 | 7.72 | 9.00
C[C@H](Oc1nc(-c2onc3c2CCC[C@@]32CCCc3sc(N)c(C#N)c32)nc2c1n(C)c(=O)n2[C@H]1CCOC1)[C@@H]1CCCN1C [I-9] | 7.28 | 7.05 | 7.12 | 8.70
C[C@H](Oc1nc(-c2onc3c2CCC[C@@]32CCCc3sc(N)c(C#N)c32)nc2c1n(C)c(=O)n2C1CCOCC1)[C@@H]1CCCN1C [I-10] | 7.38 | 7.28 | 7.16 | 8.30
C[C@H](Oc1nc(-c2onc3c2CCC[C@@]32CCCc3sc(N)c(C#N)c32)nc2c1n(C)c(=O)n2[C@H]1CCCOC1)[C@@H]1CCCN1C [I-11] | 6.41 | 6.27 | 6.35 | 8.22
C[C@H](Oc1nc(-c2onc3c2CCC[C@@]32CCCc3sc(N)c(C#N)c32)nc2c1n(C)c(=O)n2[C@@H]1CCCOC1)[C@@H]1CCCN1C [I-12] | 8.22 | 7.72 | 8.30 | 9.00
C[C@H](Oc1nc(-c2onc3c2CCC[C@@]32CCCc3sc(N)c(C#N)c32)nc2c1[nH]c(=O)n2[C@@H]1CCCOC1)[C@@H]1CCCN1C [I-13] | 8.05 | 7.41 | 7.32 | 8.70
CO[C@@H]1C[C@@H]([C@H](C)Oc2nc(-c3onc4c3CCC[C@@]43CCCc4sc(N)c(C#N)c43)nc3c2n(C)c(=O)n3[C@@H]2CCCOC2)N(C)C1 [I-14] | 8.05 | 8.22 | 8.15 | 9.00
C[C@H](Oc1nc(-c2onc3c2CCC[C@@]32CCCc3sc(N)c(C#N)c32)nc2c1n(C)c(=O)n2C12COC(C1)C2)[C@@H]1CCCN1C [I-15] | 7.96 | 8.15 | 7.44 | 8.70
CO[C@H]1C[C@H](n2c(=O)n(C)c3c(O[C@@H](C)[C@@H]4CCCN4C)nc(-c4onc5c4CCC[C@@]54CCCc5sc(N)c(C#N)c54)nc32)C1 [I-16] | 6.85 | 6.39 | 6.61 | 7.92
C[C@H](Oc1nc(-c2onc3c2CCC[C@@]32CCCc3sc(N)c(C#N)c32)nc2c1n(C)c(=O)n2[C@H]1CC2CCC1O2)[C@@H]1CCCN1C (some centres unmarked) [I-17] | 7.70 | 7.85 | 7.08 | 8.70
C[C@H](Oc1nc(-c2onc3c2CCC[C@@]32CCCc3sc(N)c(C#N)c32)nc2c1n(C)c(=O)n2[C@@H]1CC2CCC1O2)[C@@H]1CCCN1C (some centres unmarked) [I-18] | 6.62 | 7.31 | 6.44 | 8.10
C[C@H](Oc1nc(-c2onc3c2CCC[C@@]32CCCc3sc(N)c(C#N)c32)nc2c1n(C)c(=O)n2[C@H]1CCC[C@@H]1O)[C@@H]1CCCN1C [I-19] | 6.70 | 7.22 | 6.72 | 8.52
C[C@H](Oc1nc(-c2onc3c2CCC[C@@]32CCCc3sc(N)c(C#N)c32)nc2c1n(C)c(=O)n2[C@H]1CO[C@@H](C)C1)[C@@H]1CCCN1C [I-47] |  |  |  | 9.00
C[C@H](Oc1nc(-c2onc3c2CCC[C@@]32CCCc3sc(N)c(C#N)c32)nc2c1n(C)c(=O)n2[C@H]1CO[C@@H](C)C1)[C@@H]1CC[C@H](C)N1C [I-50] |  |  |  | 8.40
CO[C@H]1CCN(C)[C@@H]1[C@H](C)Oc1nc(-c2onc3c2CCC[C@@]32CCCc3sc(N)c(C#N)c32)nc2c1n(C)c(=O)n2[C@H]1COC[C@@H](C)C1 [I-51] |  |  |  | 8.70
CO[C@@H]1C[C@@H]([C@H](C)Oc2nc(-c3onc4c3CCC[C@@]43CCCc4sc(N)c(C#N)c43)nc3c2n(C)c(=O)n3[C@H]2COC[C@@H](C)C2)N(C)C1 [I-52] |  |  |  | 9.00
